Assay [1] relates to Mus musculus. Kind of assay: Tested for percent median survival time of drug-treated mice compared to saline -treated control at a dose of 40 mg/kg intraperitoneally. It is filed as functional. The following applies: route intraperitoneal.
Assay [2] deals with Mus musculus. Briefly: Tested for percent median survival time of drug-treated mice compared to saline -treated control at a dose of 80 mg/kg intraperitoneally. Type of assay: functional. The following applies: route intraperitoneal.
Assay [3] concerns Mus musculus. Kind of assay: Long time survivors of mice alive/total on day 30 after administration of the compound; 3 survived out of 4 mice. It is filed as functional.
Assay [4] deals with Mus musculus. Kind of assay: Long time survivors of mice alive/total on day 30 after administration of the compound; 1 survived out of 4 mice. It is filed as functional.
Assay [5] has as its system Mus musculus. Briefly: Long-time survivors of mice alive/total on day 30 after administration (60 mg/kg per injection) intraperitoneally on days 1 and 5. Type of assay: functional.
In assay [6] the test system is Mus musculus. Kind of assay: Long time survivors of mice alive/total on day 30 after administration (60 mg/kg per injection) intraperitoneally on days 1 and 5; 2 survived out of 4 mice. Type of assay: functional.
Assay [7] concerns Mus musculus. Briefly: Tested for percent median survival time of drug-treated mice compared to saline -treated control at a dose of 120 mg/kg intraperitoneally. It is filed as functional. The following applies: route intraperitoneal.
For assay [8], the system named is Mus musculus. Briefly: Tested for percent median survival time of drug-treated mice compared to saline -treated control at a dose of 50 mg/kg intraperitoneally. Type of assay: functional. The following applies: route intraperitoneal.
For assay [9], the system named is Mus musculus. Kind of assay: Long time survivors of mice alive/total on day 30 after administration (60 mg/kg per injection) intraperitoneally on days 1 and 5; 4 survived out of 4 mice. It is filed as functional.
A further assay deals with HCT-116. Kind of assay: Tested for in vitro cytotoxicity against HCT116 cells. It is filed as functional, cell-based. Conditions: Homo sapiens.
The subject of assay [10] is Mus musculus. Briefly: Tested for percent median survival time of drug-treated mice compared to saline -treated control at a dose of 25 mg/kg intraperitoneally. Conditions: route intraperitoneal. Type of assay: functional.
Assay [11] relates to Mus musculus. Briefly: Tested for percent median survival time of drug-treated mice compared to saline -treated control at a dose of 100 mg/kg intraperitoneally. Type of assay: functional. The following applies: route intraperitoneal.
The subject of assay [12] is Mus musculus. Kind of assay: Tested for percent median survival time of drug-treated mice compared to saline -treated control at a dose of 38 mg/kg intraperitoneally. Type of assay: functional. Conditions: route intraperitoneal.
Assay [13] in a line: Ratio of inhibition of HCT116 to that of inhibition of HCT/VP 35 cells. Type of assay: functional, HCT-116.
Assay [14] relates to Mus musculus. Kind of assay: Tested for percent median survival time of drug-treated mice compared to saline -treated control at a dose of 75 mg/kg intraperitoneally. It is filed as functional. Conditions: route intraperitoneal.
The subject of a further assay is HCT cell line. Kind of assay: Compound was evaluated for in vitro cytotoxicity against HCT/VP35 cells. Conditions: Homo sapiens. It is filed as functional, cell-based.
Assay [15] relates to Mus musculus. Kind of assay: Tested for percent median survival time of drug-treated mice compared to saline -treated control at a dose of 150 mg/kg intraperitoneally. Type of assay: functional. The following applies: route intraperitoneal.
The test system of assay [16] is Mus musculus. Briefly: Long-time survivors of mice alive/total on day 30 after administration (100 mg/kg) intraperitoneally on days 5 and 8 (experiment 1). Type of assay: functional.

Each structure is given as a SMILES string. Converted amounts (≈) assume the structure as drawn. A value given as a limit tells only on which side of the number the result lay.

Regarding `COC1=CC([C@@H]2c3cc4c(cc3[C@@H](O[C@@H]3O[C@@H]5CO[C@@H](C)O[C@H]5[C@H](O)[C@H]3O)[C@H]3COC(=O)[C@@H]32)OCO4)=CC(=O)C1=O`, the T/C in the assay with Mus musculus [1] was 274; in the assay with Mus musculus [2], greater than 621; in the assay on Mus musculus [7], 447. Also, the LTS was 3 with Mus musculus [3], greater than 1 in the assay with Mus musculus [4] and 2 with Mus musculus [6]. In the assay on Mus musculus [5], this compound returned a Max T/C greater than 595%.

As for `COc1cc([C@@H]2c3cc4c(cc3[C@@H](O[C@@H]3O[C@@H]5CO[C@@H](C)O[C@H]5[C@H](O)[C@H]3O)[C@H]3COC(=O)[C@H]23)OCO4)cc(O)c1O`, the T/C in the assay on Mus musculus [8] is on record as greater than 413; in the assay with Mus musculus [10], 250; in the assay on Mus musculus [11], 344. Also, the figures for the LTS in the assay with Mus musculus [3], in the assay on Mus musculus [9] and in the assay with Mus musculus [4] were 2, 4 and 1, respectively. In the assay with HCT-116, this compound gave an IC50 of 35 µg/mL (≈ 60.9 µM). The Max T/C in the assay on Mus musculus [5] is greater than 563%.

For `C[C@@H]1OC[C@H]2O[C@@H](O[C@@H]3c4cc5c(cc4[C@@H](c4cc(O)c(O)c(O)c4)[C@H]4C(=O)OC[C@@H]43)OCO5)[C@H](O)[C@@H](O)[C@@H]2O1`, the T/C with Mus musculus [12] is 100; in the assay with Mus musculus [14], 130; in the assay with Mus musculus [15] it was 150. The Ratio in [13] is given as 0.87. Further, the IC50 in the assay on HCT-116 stood at 79 µg/mL (≈ 141 µM); in the assay with HCT cell line, 68.9 µg/mL (≈ 123 µM). In the assay with Mus musculus [16], this compound gave a Max T/C of 230%.

On to `COc1cc([C@@H]2c3cc4c(cc3[C@@H](O[C@@H]3O[C@@H]5CO[C@@H](C)O[C@H]5[C@H](O)[C@H]3O)[C@H]3COC(=O)[C@H]23)OCO4)cc(OC)c1O` [ETOPOSIDE], for which, in assay [13], the Ratio worked out at 15. The figures for the IC50 with HCT-116 and in the assay on HCT cell line were 0.35 µg/mL (≈ 0.595 µM) and 5.2 µg/mL (≈ 8.84 µM), respectively.
